Test results: US11834470B2, “4-thioribose NAD analogues and methods of synthesizing and using the same” (University of Southern California, priority 2018, dated 2023)

Tests used:
Format in all cases: biochemical
human NRK = assay: enzymatic conversion by purified NRK1 and NMNAT1 with ATP, HPLC: NRK step; conditions: 2 mM S-NR, 6 mM ATP, 5 μM NRK1 and 5 μM NMNAT1, RT; relative to NR
Method: (§1) FIGS. 4A-4D: HPLC analysis of enzymatic synthesis of S-NAD^+ by the purified NRK1 and NMNAT1 as measured by UV absorbance at 260 nm. 2 mM S—NR was incubated with 6 mM ATP and 5 μM NRK1 and 5 μM NMNAT1 at RT for 0 h (FIG. 4A), 0.5 h (FIG. 4B), 1 h (FIG. 4C), and 4 h (FIG. 4D), followed by HPLC analysis.
(§2) Purified S—NR (0.5 mg in the form of bromide salt) was incubated with 6 mM ATP, 5 uM of purified NRK1 and NMNAT1 at the final concentration of 2 mM at room temperature for overnight in the reaction buffer (50 mM Tris, 100 mM NaCl, 12 mM MgCl2, 1 mM DTT, and pH 7.5). After centrifugation at 4,000 g for 5 minutes, supernatants were analyzed by HPLC and the fraction containing S-NAD^+ (0.68 mg, 70%) were pooled and confirmed by both NMR and mass spectrometry. All analysis and purifications on HPLC were performed with a semipreparative C18 Kinetex column (5 μm, 100 Å, 150×10.0 mm, from Phenomenex Inc, Torrance, CA) using the following method, mobile phase A: 0.1% formic acid (aq); mobile phase B: 0.1% formic acid in methanol; flow rate: 2.0 ml/min; 0-2 min: 0-4% B, 2-4 min: 4-10% B; 4-6 min: 10-20% B; 6-9 min: 20% B; 9-12 min: 20-50% B; and 12-14 min: 50-0% B.
(§3) Human NRK1 and NMNAT1 were then expressed and purified from Escherichia coli (FIG. 1). In vitro biosynthesis of NAD^+ and S-NAD^+ from NR and S—NR, respectively, were carried out using purified NRK1 and NMNAT1. […]

human CD38 [1] = target: T1, human CD38 (Homo sapiens, UniProt P28907, N100D/N164A/N209D/N219D); assay: substrate activity with human CD38, overnight incubation, HPLC analysis; conditions: 1 mM compound, 13.4 nM recombinant human CD38, 50 mM MES pH 6.5, room temperature overnight
T1 construct: His6 (N, cleaved yes); TEV protease cleavage site (N, cleaved yes); made in house; host or cells: Expi293 cells, secreted, transient transfection (pFuse vector)
T1 sequence (P28907 45-300 N100D/N164A/N209D/N219D): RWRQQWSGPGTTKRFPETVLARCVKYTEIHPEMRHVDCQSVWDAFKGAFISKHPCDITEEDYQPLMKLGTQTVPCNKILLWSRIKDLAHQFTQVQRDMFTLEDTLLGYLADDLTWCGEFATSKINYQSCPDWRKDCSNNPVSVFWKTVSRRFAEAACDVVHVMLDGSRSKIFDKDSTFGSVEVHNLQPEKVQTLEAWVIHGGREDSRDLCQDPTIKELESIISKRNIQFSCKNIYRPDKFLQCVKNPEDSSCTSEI
Method: FIGS. 15A-15D: Activity of NAD^+ and S-NAD^+ for human CD38. HPLC analysis of substrate activities of NAD^+ (FIG. 15A-15B) and S-NAD^+ (FIG. 15C-15D) with human CD38 as measured by UV absorbance at 260 nm. 1 mM NAD^+ or S-NAD^+ was incubated without and with CD38 at RT overnight, followed by HPLC analysis.
1 mM S-NAD^+ and NAD^+ in 50 mM MES, pH 6.5 were incubated with 13.4 nM recombinant human CD38 for overnight at room temperature, followed HPLC analysis of the reaction mixtures. HPLC analysis was performed with a semipreparative C18 Kinetex column (5 μm, 100 Å, 150×10.0 mm, from Phenomenex Inc, Torrance, CA) using following method: mobile phase A: 0.1% formic acid (aq); mobile phase B: 0.1% formic acid in methanol; flow rate: 2.0 ml/min; 0-2 min: 0-4% B, 2-4 min: 4-10% B; 4-6 min: 10-20% B; 6-9 min: 20% B; 9-12 min: 20-50% B; and 12-14 min: 50-0% B.

[2] = target: T2, Bovine glutamate dehydrogenase (GDH) (Bos taurus, UniProt P00366); assay: substrate activity with redox enzyme GDH (UV 340 nm and HPLC); conditions: for HPLC analysis of reduction by bovine GDH: 0.5 mM compound, 2 mM L-glutamate, 20 unit/ml GDH, 30 minutes, peaks confirmed by mass spectrometry
T2 construct: purchased Sigma-Aldrich (St. Louis, MO)
T2 sequence (P00366 58-558): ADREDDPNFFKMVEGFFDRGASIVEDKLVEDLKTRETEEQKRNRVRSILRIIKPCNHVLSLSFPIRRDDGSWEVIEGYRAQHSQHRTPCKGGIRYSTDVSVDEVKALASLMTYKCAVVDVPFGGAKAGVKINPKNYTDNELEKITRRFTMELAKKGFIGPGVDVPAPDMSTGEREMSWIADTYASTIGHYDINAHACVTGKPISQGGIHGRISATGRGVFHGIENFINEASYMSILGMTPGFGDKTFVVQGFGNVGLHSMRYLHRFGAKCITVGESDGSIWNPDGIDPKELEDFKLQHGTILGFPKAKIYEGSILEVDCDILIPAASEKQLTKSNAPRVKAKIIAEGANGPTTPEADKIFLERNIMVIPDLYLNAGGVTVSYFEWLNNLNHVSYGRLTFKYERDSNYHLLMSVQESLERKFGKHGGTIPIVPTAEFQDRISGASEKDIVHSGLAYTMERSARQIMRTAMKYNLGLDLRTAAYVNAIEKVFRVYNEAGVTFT
Method: (§4) Bovine glutamate dehydrogenase (GDH) and Leuconostoc mesenteroides glucose-6-phosphate dehydrogenase (G6PDH) were purchased from Sigma-Aldrich (St. Louis, MO) and used for determining the substrate activities of NAD^+ and S-NAD^+. To examine substrate activity with bovine GDH, 0.1 mM NAD^+ or S-NAD^+ was incubated with 1 mM L-glutamate and 0.1 unit/ml GDH in buffer containing 2 mM DTT, 50 mM Tris, pH 7.5 for 15 minutes at room temperature. To determine substrate activity with G6PDH, 0.5 mM NAD^+ or S-NAD^+ was incubated with 5 mM D-glucose 6-phosphate and 0.01 unit/ml G6PDH in buffer containing 5 mM MgCl2, 50 mM Tris, pH 7.5 for 15 minutes at room temperature. Formation of NADH and S-NADH were monitored by UV absorbance at 340 nm under kinetic mode using a NanoDrop 2000C spectrophotometer (Thermo Scientific, MA).
(§5) To examine the bovine GDH-catalyzed reactions, 0.5 mM NAD^+ or S-NAD^+ was incubated with 2 mM L-glutamate and 20 unit/ml GDH in buffer containing 2 mM DTT, 50 mM Tris, pH 7.5 for 30 minutes at room temperature, followed by HPLC analysis with detection of UV absorbance at 340 nm. To evaluate the L. mesenteroides G6PDH-catalyzed reactions, 0.5 mM NAD^+ or S-NAD^+ was incubated with 5 mM D-glucose 6-phosphate and 10 unit/ml G6PDH in buffer containing 5 mM MgCl2, 50 mM Tris, pH 7.5 for 30 minutes at room temperature, followed by HPLC analysis with detection of UV absorbance at 340 nm. The HPLC method used for analysis of reactions by GDH and G6PDH was the same as described above.

[3] = target: T3, Leuconostoc mesenteroides glucose-6-phosphate dehydrogenase (G6PDH) (Leuconostoc mesenteroides, UniProt P11411); assay: substrate activity with redox enzyme G6PDH (UV 340 nm and HPLC); conditions: 0.5 mM compound, 5 mM D-glucose 6-phosphate; for HPLC analysis of reduction by L. mesenteroides G6PDH: 10 unit/ml G6PDH, 30 minutes, peaks confirmed by mass spectrometry
T3 construct: purchased Sigma-Aldrich (St. Louis, MO)
T3 sequence (P11411 whole entry): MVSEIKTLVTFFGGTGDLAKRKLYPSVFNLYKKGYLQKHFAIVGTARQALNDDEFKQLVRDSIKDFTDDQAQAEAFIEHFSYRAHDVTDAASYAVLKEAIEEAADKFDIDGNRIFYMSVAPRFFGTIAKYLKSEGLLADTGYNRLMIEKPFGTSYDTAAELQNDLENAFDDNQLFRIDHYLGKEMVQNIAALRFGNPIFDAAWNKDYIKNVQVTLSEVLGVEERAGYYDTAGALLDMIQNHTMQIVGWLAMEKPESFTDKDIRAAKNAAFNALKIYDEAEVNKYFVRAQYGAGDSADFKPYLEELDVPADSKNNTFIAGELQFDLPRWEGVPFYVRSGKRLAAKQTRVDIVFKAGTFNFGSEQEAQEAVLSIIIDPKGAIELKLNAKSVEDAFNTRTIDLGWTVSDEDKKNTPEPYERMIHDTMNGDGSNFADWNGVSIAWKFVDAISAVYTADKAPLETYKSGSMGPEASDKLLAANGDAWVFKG
Method: as §4, §5

human NMNAT = target: T4, human NMNAT (Homo sapiens, UniProt Q9HAN9); assay: enzymatic conversion by purified NRK1 and NMNAT1 with ATP, HPLC: NMNAT step; conditions: 6 mM ATP, 5 μM NRK1 and 5 μM NMNAT1, RT; relative to NMN
T4 construct: made in house; host or cells: E. coli BL21 (DE3), pET-28a(+)
T4 sequence (Q9HAN9 with tags, fused parts or gaps): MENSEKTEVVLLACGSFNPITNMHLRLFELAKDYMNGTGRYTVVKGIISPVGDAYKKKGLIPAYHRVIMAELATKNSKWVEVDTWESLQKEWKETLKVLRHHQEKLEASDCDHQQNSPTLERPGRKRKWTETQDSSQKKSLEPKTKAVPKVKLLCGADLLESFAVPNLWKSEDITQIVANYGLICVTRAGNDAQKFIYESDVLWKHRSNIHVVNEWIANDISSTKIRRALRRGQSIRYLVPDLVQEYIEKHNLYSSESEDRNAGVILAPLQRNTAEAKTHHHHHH
Method: as §1, §2, §3

human CD38 [4] = target: T1, human CD38; assay: continuous fluorescence-based CD38 cyclase activity assay with NGD+ as substrate (cGDPR formation)
Method: Recombinant human CD38 (8 nM) was incubated with 50 μM NGD^+ in the presence of varied concentrations of S-NAD^+. CD38 cyclase activities were monitored on the basis of the formation of fluorescent cGDPR as measured at 410 nm.
NGD^+ (Sigma-Aldrich, MO) was used as a substrate to determine ADP-ribosyl cyclase activity of purified CD38, because cyclic GDP-ribose (cGDPR) product is characterized by distinctive UV absorbance at 295 nm and fluorescence emission at 410 nm (excitation at 300 nm).^5 To characterize kinetic parameters, reactions were initiated by additions of recombinant CD38 (8.3 nM final) into assay wells with various concentrations of NGD^+ in 20 mM MES, pH 6.5, followed by monitoring the reactions through fluorescence at 410 nm (excitation at 300 nm) to determine initial reaction rates. Inhibition activities of S-NAD^+ were determined by carried out enzymatic formation of cyclic GDP-ribose in the presence of S-NAD^+. […] All reactions were carried out in black 96-well plates and the resulting fluorescence was measured using a BioTek Synergy H1 Hybrid Multi-Mode Microplate Reader (BioTek, VT) in the kinetic mode. The Km of NGD^+ for CD38 was calculated by fitting data with Michaelis-Menten function implemented in GraphPad Prism (La Jolla, CA). […]

Structure (SMILES)	fate of compound after overnight reaction with CD38 (HPLC) (human CD38 [1])	HPLC analysis of reduction by bovine GDH [2]	HPLC analysis of reduction by L. mesenteroides G6PDH [3]	also measured
NC(=O)c1ccc[n+]([C@@H]2S[C@H](CO)[C@@H](O)[C@H]2O)c1.[Br-] [S—NR, 3-carbamoyl-1-((2R,3R,4S,5R)-3,4-dihydroxy-5-(hydroxymethyl)tetrahydrothiophen-2-yl)pyridin-1-ium]				effect of sulfur substitution on substrate activity for human NRK (human NRK): no effect
NC(=O)c1ccc[n+]([C@@H]2O[C@H](COP(=O)([O-])OP(=O)(O)OC[C@H]3O[C@@H](n4cnc5c(N)ncnc54)[C@H](O)[C@@H]3O)[C@@H](O)[C@H]2O)c1 [NAD^+, Nicotinamide adenine dinucleotide, reference compound]	completely consumed	enzyme-dependent formation of NADH and S-NADH peaks	enzyme-dependent formation of NADH and S-NADH peaks	
NC(=O)c1ccc[n+](C2SC(COP(=O)([O-])O)C(O)C2O)c1 (stereo not drawn) [S-NMN, 4′-thioribose nicotinamide mononucleotide]				effect of sulfur substitution on substrate activity for human NMNAT (human NMNAT): no effect
NC(=O)c1ccc[n+]([C@@H]2S[C@H](COP(=O)(O)OP(=O)([O-])OC[C@H]3O[C@@H](n4cnc5c(N)ncnc54)[C@H](O)[C@@H]3O)[C@@H](O)[C@H]2O)c1 (stereo in doubt) [S-NAD^+, 4′-thioribose NAD+]	still remained unchanged	enzyme-dependent formation of NADH and S-NADH peaks	enzyme-dependent formation of NADH and S-NADH peaks	slow-onset inhibition of CD38 (human CD38 [4]; direct competition assays with extended incubation or preincubating CD38 with S-NAD+): no slow-onset inhibition was observed; reduction by bovine GDH monitored by UV absorbance at 340 nm ([2]; 0.1 mM compound, 1 mM L-glutamate, 0.1 unit/ml GDH, 15 minutes, room temperature): characteristic increases of UV absorbance at 340 nm; reduction by L. mesenteroides G6PDH monitored by UV absorbance at 340 nm ([3]; 0.01 unit/ml G6PDH, 15 minutes, room temperature): characteristic increases of UV absorbance at 340 nm
NC(=O)c1ccc[n+]([C@@H]2O[C@H](COP(=O)([O-])OP(=O)(O)OC[C@H]3O[C@@H](n4cnc5c(=O)[nH]c(N)nc54)[C@H](O)[C@@H]3O)[C@@H](O)[C@H]2O)c1 [NGD^+, nicotinamide guanine dinucleotide, reference compound]				Km (human CD38 [4]; 8.3 nM recombinant CD38, 20 mM MES pH 6.5, fluorescence at 410 nm): 8.5 ± 0.6 µM
